In assay [1] the target is T1, WRN (Homo sapiens, UniProt Q14191).
T1 construct: A His-tagged construct of WRN (AA S2-S1235) was produced and used for the ATPase assay; His; made in house; host or cells: Sf9 insect cells (baculovirus)
The assay is described as follows: WRN Helicase activity assay (fluorescence DNA unwinding). The conditions noted are these: IC50, 1-hr pre-incubation with enzyme; geometric means of at least 2 independent replicates. It is filed as biochemical. As to the method:
Compounds of the examples were tested for WRN helicase activity. DNA encoding the target protein, 6×HIS-TEV-WRN-517-945, was produced, cloned and transfected as detailed in Example D. To determine the inhibitory properties of the compounds, a 384 wells plate-based Helicase assay was set up to measure the extent of DNA unwinding (Helicase) activity of WRN. The WRN Helicase assay was designed to measure increase in fluorescence signal using a fluorescence based, donor-quencher paired forked dsDNA oligomer substrate (custom synthesis from Sigma-Aldrich) prepared by annealing equal amounts of oligo GPat-1 ([BHQ2][…]) and oligo GPat-2 ([…][TAM]). Continuous measurement of fluorescent signal was used to optimize the buffer conditions, concentration of enzyme (WRN), concentration of substrates (ATP & dsDNA), and the linearity of the Helicase reaction. All solutions were prepared in the following assay buffer: 50 mM Tris-HCl, pH-7.5, 2 mM MgCl2, 50 mM NaCl, 1 mM EGTA, 0.01% P-20, 0.05% BSA, and 2 mM DTT prepared with nuclease free water.
A serial dilution (1:3 scheme) of the compounds was prepared in neat DMSO and 100 nL of the compounds was dispensed in the Greiner black low volume (Greiner #784076) 384 wells assay plate. An 1-hr pre-incubation of the compounds with enzyme was included. A His-tagged construct of WRN (AA S2-S1235) was produced and used for the ATPase assay. Maximum inhibition control wells were set up with the addition of only assay buffer, and no inhibition control wells were set up with neat DMSO without test compounds. The reaction was initiated by addition of 5 μL substrate mix (200 μM ultrapure ATP, and 50 nM dsDNA prepared in assay buffer) and incubated at 25° C. for 35 min. A typical Helicase reaction consists of 25 nM forked dsDNA, 100 μM ATP, and 1 nM WRN prepared in assay buffer. The WRN Helicase reaction was quenched by the addition of 5 μL ‘STOP’ solution containing 100 mM EDTA (final EDTA concentration 33.33 mM) prepared in assay buffer. The plates were read on BMG PHERAstar FSX using 540/590 module to measure an increase of fluorescence. Data analysis was carried out using the Genedata software following % of control normalization. Fitting parameters include dose response IC50, Hill slope (n), maximum inhibition (S∞), and minimum inhibition (S0). The reported IC50 values for compounds in this invention are the geometric means of at least 2 independent replicates.

The target in assay [2] is T1, WRN. The assay is described as follows: WRN ATPase activity assay (ADP-Glo). The assay is classed as biochemical. The conditions noted are these: IC50, 1-hr pre-incubation with enzyme; geometric means of at least 2 independent replicates. As to the method:
Compounds of the Examples were tested for WRN ATPase activity. WRN ATPase activity catalyzes ATP hydrolysis to produce ADP and phosphate. DNA encoding the target protein, 6×HIS-TEV-WRN-517-945, was produced, cloned and transfected as detailed in Example D. The amount of ADP produced was measured using ADP-Glo™ Kinase Assay kit from Promega Corporation in a Greiner white regular volume 384 wells assay plate (Greiner #781075). Data was normalized to a standard curve generated using various ADP concentrations and the corresponding luminescent signal intensities at each concentration. The assay conditions were optimized for enzyme concentration (WRN), substrate concentrations (ATP & dsDNA), and the linearity of the ATPase reaction, in the following assay buffer: 50 mM Tris-HCl, pH-7.5, 2 mM MgCl2, 50 mM NaCl, 1 mM EGTA, 0.01% P-20, 0.05% BSA, and 2 mM DTT prepared with nuclease free water.
A serial dilution (1:3 scheme) of the compounds were prepared in neat DMSO, with 100 nL of the compounds dispensed in the 384 wells assay plate. An 1-hr pre-incubation of the compounds with enzyme was included. A His-tagged construct of WRN (AA S2-S1235) was produced and used for the ATPase assay. Maximum inhibition control wells were set up with the addition of only assay buffer, and no inhibition control wells were set up with neat DMSO without test compounds. The reaction was initiated by addition of 5 μL substrate mix (200 μM ultrapure ATP, and 50 nM dsDNA prepared in assay buffer) and incubated at 25° C. for 35 min. A forked dsDNA oligomer substrate was prepared by annealing equal amounts of oligo GPat-1 ([BHQ2][…]) and oligo GPat-2 ([…][TAM]) and was used as dsDNA substrate for WRN ATPase assay. A typical ATPase reaction consists of 25 nM forked dsDNA, 100 μM ATP, and 1 nM WRN prepared in assay buffer. The WRN ATPase reaction was stopped by the addition of 5 μL of ADP-Glo Reagent from ADP-Glo™ Kinase Assay kit and incubated for 40 min to deplete the unreacted ATP. Afterwards, 5 μL of Kinase Detection Reagent from the ADP-Glo™ Kinase Assay kit was added and incubated for 1 hr for the development of luminescence signal.
Luminesce signals were measured on BMG PHERAstar FSX using luminescence protocol. Data analysis was carried out using Genedata software following % of control normalization. Fitting parameters include dose response IC50, Hill slope (n), maximum inhibition (S∞), and minimum inhibition (S0). The reported IC50 values for compounds in this invention are the geometric means of at least 2 independent replicates.

SMILES strings stand for the structures.

T1 sequence (Q14191 2-1235): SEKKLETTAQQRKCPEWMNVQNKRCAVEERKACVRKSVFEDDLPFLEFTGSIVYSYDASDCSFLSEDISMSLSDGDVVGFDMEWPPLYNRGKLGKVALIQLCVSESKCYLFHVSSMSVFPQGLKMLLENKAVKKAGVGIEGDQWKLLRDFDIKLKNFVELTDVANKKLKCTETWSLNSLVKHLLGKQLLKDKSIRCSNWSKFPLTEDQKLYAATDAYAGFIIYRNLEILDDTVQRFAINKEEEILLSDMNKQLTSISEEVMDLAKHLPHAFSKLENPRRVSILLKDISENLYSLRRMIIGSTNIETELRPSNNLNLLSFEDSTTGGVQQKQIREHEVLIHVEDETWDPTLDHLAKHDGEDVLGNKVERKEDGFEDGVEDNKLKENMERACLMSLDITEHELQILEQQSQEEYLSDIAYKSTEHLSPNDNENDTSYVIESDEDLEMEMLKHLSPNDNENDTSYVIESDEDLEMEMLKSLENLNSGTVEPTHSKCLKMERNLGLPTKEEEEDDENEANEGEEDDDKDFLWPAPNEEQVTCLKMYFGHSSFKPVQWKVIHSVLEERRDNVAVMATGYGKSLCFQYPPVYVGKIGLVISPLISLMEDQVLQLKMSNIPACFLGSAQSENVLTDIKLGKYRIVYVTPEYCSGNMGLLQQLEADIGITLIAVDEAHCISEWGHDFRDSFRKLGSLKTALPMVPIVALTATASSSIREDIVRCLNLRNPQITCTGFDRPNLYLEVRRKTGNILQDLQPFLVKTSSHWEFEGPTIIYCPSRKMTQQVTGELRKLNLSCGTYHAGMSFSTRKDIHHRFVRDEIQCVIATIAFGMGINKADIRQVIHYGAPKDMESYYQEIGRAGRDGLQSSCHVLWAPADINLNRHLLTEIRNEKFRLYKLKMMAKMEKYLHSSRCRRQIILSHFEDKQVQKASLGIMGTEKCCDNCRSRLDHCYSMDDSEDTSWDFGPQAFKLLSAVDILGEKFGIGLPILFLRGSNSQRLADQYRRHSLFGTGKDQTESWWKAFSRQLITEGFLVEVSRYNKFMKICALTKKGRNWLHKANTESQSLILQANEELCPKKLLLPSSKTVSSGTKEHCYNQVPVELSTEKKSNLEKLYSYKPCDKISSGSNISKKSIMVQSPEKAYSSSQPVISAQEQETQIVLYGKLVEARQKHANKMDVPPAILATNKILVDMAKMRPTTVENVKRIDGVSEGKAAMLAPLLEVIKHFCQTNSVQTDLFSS

In the case of `CCc1c(-c2ccccc2NC(=O)/C(C#N)=C\C(C)C)c(=O)n2nc(C3=CCOCC3)nc2n1CC(=O)Nc1ccc(C(F)(F)F)cc1` (single isomer, unassigned) [Example 4, (Z)-2-Cyano-N-(2-(2-(3,6-dihydro-2H-pyran-4-yl)-5-ethyl-7-oxo-4-(2-oxo-2-((4-(trifluoromethyl)phenyl)amino)ethyl)-4,7-dihydro-[1,2,4]triazolo[1,5-a]pyrimidin-6-yl)phenyl)-4-methylpent-2-enamide], the 50% inhibitory concentration (IC50) in assay [1] and in assay [2] was 500 to 1000 nM throughout.

For `CCc1c(-c2ccccc2NC(=O)/C(C#N)=C/C(C)C)c(=O)n2nc(C3=CCOCC3)nc2n1CC(=O)Nc1ccc(C(F)(F)F)cc1` (single isomer, unassigned) [Example 5, (E)-2-Cyano-N-(2-(2-(3,6-dihydro-2H-pyran-4-yl)-5-ethyl-7-oxo-4-(2-oxo-2-((4-(trifluoromethyl)phenyl)amino)ethyl)-4,7-dihydro-[1,2,4]triazolo[1,5-a]pyrimidin-6-yl)phenyl)-4-methylpent-2-enamide], the IC50 in assay [1] and in assay [2] was below 100 nM throughout.

As to `C=CS(=O)(=O)Nc1ccccc1-c1c(CC)n(CC(=O)Nc2ccc(C(F)(F)F)cc2)c2nc(C3=CCOCC3)nn2c1=O` [Example 2, 2-(2-(3,6-Dihydro-2H-pyran-4-yl)-5-ethyl-7-oxo-6-(2-(vinylsulfonamido)phenyl)-[1,2,4]triazolo[1,5-a]pyrimidin-4(7H)-yl)-N-(4-(trifluoromethyl)phenyl)acetamide], the IC50 in assay [1] and in assay [2] was below 100 nM each time.

Take `CCOC(=O)/C=C/C(=O)Nc1ccccc1-c1c(CC)n(CC(=O)Nc2ccc(C(F)(F)F)cc2)c2nc(C3=CCOCC3)nn2c1=O` [Example 3, Ethyl (E)-4-((2-(2-(3,6-dihydro-2H-pyran-4-yl)-5-ethyl-7-oxo-4-(2-oxo-2-((4-(trifluoromethyl)phenyl)amino)ethyl)-4,7-dihydro-[1,2,4]triazolo[1,5-a]pyrimidin-6-yl)phenyl)amino)-4-oxobut-2-enoate]: the results for the 50% inhibitory concentration (IC50) in assay [1] and in assay [2] were 1000 to 2000 nM and 500 to 1000 nM, respectively.

On to `C=CC(=O)N(C)c1ccccc1-c1c(CC)n(CC(=O)Nc2ccc(C(F)(F)F)cc2)c2nc(C3=CCOCC3)nn2c1=O` [Example 6, N-(2-(2-(3,6-Dihydro-2H-pyran-4-yl)-5-ethyl-7-oxo-4-(2-oxo-2-((4-(trifluoromethyl)phenyl)amino)ethyl)-4,7-dihydro-[1,2,4]triazolo[1,5-a]pyrimidin-6-yl)phenyl)-N-methylacrylamide], for which the half-maximal inhibitory concentration (IC50) (in general, the concentration needed to halve the response being measured) in assay [1] is 100 to 500 nM; in assay [2] it was below 100 nM.

As to `C=CC(=O)Nc1c(C)cccc1-c1c(CC)n(CC(=O)Nc2ccc(C(F)(F)F)cc2)c2nc(C3=CCOCC3)nn2c1=O` [Example 7, N-(2-(2-(3,6-Dihydro-2H-pyran-4-yl)-5-ethyl-7-oxo-4-(2-oxo-2-((4-(trifluoromethyl)phenyl)amino)ethyl)-4,7-dihydro-[1,2,4]triazolo[1,5-a]pyrimidin-6-yl)-6-methylphenyl)acryl amide], the IC50 in assay [1] lay within 500 to 1000 nM; in assay [2], 100 to 500 nM.

Consider `C=CC(=O)Nc1cc(C)ccc1-c1c(CC)n(CC(=O)Nc2ccc(C(F)(F)F)cc2)c2nc(C3=CCOCC3)nn2c1=O` [Example 8, N-(2-(2-(3,6-Dihydro-2H-pyran-4-yl)-5-ethyl-7-oxo-4-(2-oxo-2-((4-(trifluoromethyl)phenyl)amino)ethyl)-4,7-dihydro-[1,2,4]triazolo[1,5-a]pyrimidin-6-yl)-5-methylphenyl)acryl amide], for which the half-inhibitory concentration (IC50) in assay [1] and in assay [2] was below 100 nM each time.

For the compound `C=CC(=O)Nc1ccc(C)cc1-c1c(CC)n(CC(=O)Nc2ccc(C(F)(F)F)cc2)c2nc(C3=CCOCC3)nn2c1=O` [Example 9, N-(2-(2-(3,6-Dihydro-2H-pyran-4-yl)-5-ethyl-7-oxo-4-(2-oxo-2-((4-(trifluoromethyl)phenyl)amino)ethyl)-4,7-dihydro-[1,2,4]triazolo[1,5-a]pyrimidin-6-yl)-4-methylphenyl)acryl amide], the IC50 in assay [1] and in assay [2] was 500 to 1000 nM in each case.

For the compound `C=CC(=O)Nc1cc(Cl)ccc1-c1c(CC)n(CC(=O)Nc2ccc(C(F)(F)F)cc2)c2nc(C3=CCOCC3)nn2c1=O` [Example 10, N-(5-Chloro-2-(2-(3,6-dihydro-2H-pyran-4-yl)-5-ethyl-7-oxo-4-(2-oxo-2-((4-(trifluoromethyl)phenyl)amino)ethyl)-4,7-dihydro-[1,2,4]triazolo[1,5-a]pyrimidin-6-yl)phenyl)acrylamide], the IC50 in assay [1] and in assay [2] was below 100 nM in each case.

Turning to `C=CC(=O)Nc1ccc(Cl)cc1-c1c(CC)n(CC(=O)Nc2ccc(C(F)(F)F)cc2)c2nc(C3=CCOCC3)nn2c1=O` [Example 11, N-(4-Chloro-2-(2-(3,6-dihydro-2H-pyran-4-yl)-5-ethyl-7-oxo-4-(2-oxo-2-((4-(trifluoromethyl)phenyl)amino)ethyl)-4,7-dihydro-[1,2,4]triazolo[1,5-a]pyrimidin-6-yl)phenyl)acrylamide], the half-inhibitory concentration (IC50) in assay [1] and in assay [2] was 500 to 1000 nM throughout.

In the case of `C=CC(=O)Nc1cc(C(F)(F)F)ccc1-c1c(CC)n(CC(=O)Nc2ccc(C(F)(F)F)cc2)c2nc(C3=CCOCC3)nn2c1=O` [Example 12, N-(2-(2-(3,6-Dihydro-2H-pyran-4-yl)-5-ethyl-7-oxo-4-(2-oxo-2-((4-(trifluoromethyl)phenyl)amino)ethyl)-4,7-dihydro-[1,2,4]triazolo[1,5-a]pyrimidin-6-yl)-5-(trifluoromethyl)phenyl)acrylamide], the IC50 in assay [1] and in assay [2] was below 100 nM throughout.

As for `C=CC(=O)Nc1cc(F)ccc1-c1c(CC)n(CC(=O)Nc2ccc(C(F)(F)F)cc2)c2nc(C3=CCOCC3)nn2c1=O` [Example 13, N-(2-(2-(3,6-Dihydro-2H-pyran-4-yl)-5-ethyl-7-oxo-4-(2-oxo-2-((4-(trifluoromethyl)phenyl)amino)ethyl)-4,7-dihydro-[1,2,4]triazolo[1,5-a]pyrimidin-6-yl)-5-fluorophenyl)acryl amide], the IC50 in assay [1] and in assay [2] was below 100 nM in each case.

Take `C=CC(=O)N1CCCC=C1c1c(CC)n(CC(=O)Nc2ccc(C(F)(F)F)cc2)c2nc(C3=CCOCC3)nn2c1=O` [Example 14, 2-(6-(1-Acryloyl-1,4,5,6-tetrahydropyridin-2-yl)-2-(3,6-dihydro-2H-pyran-4-yl)-5-ethyl-7-oxo-[1,2,4]triazolo[1,5-a]pyrimidin-4(7H)-yl)-N-(4-(trifluoromethyl)phenyl)acetamide]: the IC50 in assay [1] and in assay [2] was below 100 nM throughout.
